The test system of data set [1] is KBv200. Kind of data set: Inhibition of cell proliferation in human KBv200 cells incubated for 72 hrs by SRB assay. Conditions: KBv200, 72 h. It counts as functional, cell-based.
Data set [2] relates to KBv200. Kind of data set: Antitumor activity against human KBv200 cells xenografted in Balb/cA nude mouse assessed as decrease in tumor size at 8 mg/kg, iv administered on day 0,4,8 and measured for 14 days. It counts as functional, organism-based. Conditions: time 14.0 day. Background: Xenograft models place foreign cells or tissue in a host animal.
Data set [3] concerns KBv200. The data set can be described thus: Reversal effect on P-gp-mediated multidrug resistance in human KBv200 cells assessed as inhibition of cell proliferation incubated for 72 hrs by SRB assay. It counts as functional, cell-based. Conditions: KBv200, 72 h. Background: In SRB staining, fixed cells bind dye roughly in proportion to their protein.
Data set [4] deals with NCI/ADR-RES. The data set can be described thus: Reversal effect on P-gp-mediated multidrug resistance in human NCI/ADR-RES cells assessed as inhibition of cell proliferation incubated for 72 hrs by SRB assay. It counts as functional, cell-based.
For data set [5], the system named is KBv200. Kind of data set: Inhibition of cell proliferation in human KBv200 cells at 10 uM incubated for 72 hrs by SRB assay relative to control. It counts as functional.
Data set [6] deals with KBv200. Kind of data set: Inhibition of ADR uptake in human KBv200 cells at 10 uM incubated for 10 mins by flow cytometry. The format is functional, cell-based. Background: Flow cytometry measures light scatter and fluorescence of single cells or particles in a stream.
The test system of data set [7] is KBv200. Kind of data set: Cytotoxicity against human KBv200 cells at 10 uM incubated for 72 hrs by SRB assay relative to control. It counts as functional.
The subject of data set [8] is KBv200. Kind of data set: Inhibition of Rho-123 uptake in human KBv200 cells at 10 uM incubated for 10 mins by flow cytometry. The format is functional, cell-based.
Data set [9] has as its system KBv200. Kind of data set: Inhibition of calcein AM uptake in human KBv200 cells at 10 uM incubated for 10 mins by flow cytometry. It counts as functional, cell-based.
The test system of data set [10] is KBv200. Kind of data set: Reversal fold, ratio of VNR IC50 to VNR IC50 in presence of test compound for human KBv200 cells incubated for 72 hrs by SRB assay. The format is functional.
Data set [11] relates to KBv200. Kind of data set: Inhibition of cell proliferation in human KBv200 cells assessed as inhibition of VNR at 10 uM incubated for 72 hrs in presence of VNR by SRB assay relative to control. The format is functional.
A short description of data set [12]: Inhibition of ADR uptake in human KBv200 cells assessed as ADR accumulation at 1 uM incubated for 10 mins by flow cytometry (reference value: 6.2 %). It counts as functional. Further details: scale not given: the % may be the effect or the level left.
Data set [13] deals with NCI/ADR-RES. The data set can be described thus: Reversal fold, ratio of VNR IC50 to VNR IC50 in presence of test compound for reversal effect on P-gp-mediated multidrug resistance in human NCI/ADR-RES cells incubated for 72 hrs by SRB assay. The format is functional.
The test system of data set [14] is KBv200. Kind of data set: Reversal fold, ratio of PTX IC50 to PTX IC50 in presence of test compound for reversal effect on P-gp-mediated multidrug resistance in human KBv200 cells incubated for 72 hrs by SRB assay. The format is functional.
The test system of data set [15] is KBv200. Kind of data set: Reversal fold, ratio of VNR IC50 to VNR IC50 in presence of test compound for reversal effect on P-gp-mediated multidrug resistance in human KBv200 cells incubated for 72 hrs by SRB assay. It counts as functional.
The test system of data set [16] is NCI/ADR-RES. Kind of data set: Reversal fold, ratio of ADR IC50 to ADR IC50 in presence of test compound for reversal effect on P-gp-mediated multidrug resistance in human NCI/ADR-RES cells incubated for 72 hrs by SRB assay. The format is functional.
The subject of data set [17] is KBv200. The data set can be described thus: Inhibition of ADR uptake in human KBv200 cells at 10 uM incubated for 10 mins by fluorescence microscopy. It counts as functional, cell-based.
A short description of data set [18]: Inhibition of ADR efflux in human KBv200 cells assessed as ADR accumulation at 1 uM incubated for 3 hrs by flow cytometry (reference value: 25.7 %). The format is functional. Further details: scale not given: the % may be the effect or the level left.
Data set [19] addresses Multidrug resistance-associated protein 1 (Homo sapiens, UniProt P33527). The data set can be described thus: Inhibition of MRP1 (unknown origin) expressed in HEK293 cells assessed as increase in mitoxantrone accumulation by flow cytometry. The format is cell-based.
In data set [20] the test system is KBv200. Kind of data set: Inhibition of ADR efflux in human KBv200 cells incubated for 3 hrs by fluorescence microscopy. The format is functional, cell-based.
For data set [21], the target named is T1, Broad substrate specificity ATP-binding cassette transporter ABCG2 (Homo sapiens, UniProt Q9UNQ0).
T1 sequence (Q9UNQ0 whole entry): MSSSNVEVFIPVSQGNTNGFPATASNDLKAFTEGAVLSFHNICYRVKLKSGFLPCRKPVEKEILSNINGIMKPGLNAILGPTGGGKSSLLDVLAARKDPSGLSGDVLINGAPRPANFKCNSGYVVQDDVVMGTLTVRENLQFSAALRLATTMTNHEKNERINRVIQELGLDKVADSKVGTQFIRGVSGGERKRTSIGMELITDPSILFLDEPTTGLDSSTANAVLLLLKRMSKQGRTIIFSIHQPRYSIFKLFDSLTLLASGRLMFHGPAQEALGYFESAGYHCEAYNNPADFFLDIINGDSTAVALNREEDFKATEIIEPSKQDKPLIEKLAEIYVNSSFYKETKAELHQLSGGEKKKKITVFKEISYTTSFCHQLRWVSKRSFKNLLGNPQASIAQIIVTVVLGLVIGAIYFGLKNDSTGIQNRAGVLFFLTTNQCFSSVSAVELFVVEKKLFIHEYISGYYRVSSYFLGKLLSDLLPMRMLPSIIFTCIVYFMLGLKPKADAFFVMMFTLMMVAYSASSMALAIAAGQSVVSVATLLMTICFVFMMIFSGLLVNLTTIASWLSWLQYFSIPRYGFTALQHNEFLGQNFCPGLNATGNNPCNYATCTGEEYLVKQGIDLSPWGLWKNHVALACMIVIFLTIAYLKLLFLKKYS
Kind of data set: Inhibition of BCRP (unknown origin) expressed in HEK293 cells assessed as increase in mitoxantrone accumulation by flow cytometry. It counts as cell-based.

In data set [22] the test system is NCI/ADR-RES. The data set can be described thus: Reversal fold, ratio of PTX IC50 to PTX IC50 in presence of test compound for reversal effect on P-gp-mediated multidrug resistance in human NCI/ADR-RES cells incubated for 72 hrs by SRB assay. It counts as functional.
Data set [23] deals with KBv200. Kind of data set: Effect on P-gp level in human KBv200 cells incubated for 24 hrs by qRT-PCR analysis. The format is functional, cell-based.
In data set [24] the test system is KBv200. Kind of data set: Reversal fold, ratio of ADR IC50 to ADR IC50 in presence of test compound for reversal effect on P-gp-mediated multidrug resistance in human KBv200 cells incubated for 72 hrs by SRB assay. It counts as functional.
Data set [25] is described as follows: Inhibition of ADR efflux in human KBv200 cells assessed as ADR accumulation at 10 uM incubated for 3 hrs by flow cytometry (reference value: 25.7 %). It counts as functional. Further details: scale not given: the % may be the effect or the level left.
A short description of data set [26]: Inhibition of ADR uptake in human KBv200 cells assessed as ADR accumulation at 10 uM incubated for 10 mins by flow cytometry (reference value: 6.2 %). The format is functional. Further details: scale not given: the % may be the effect or the level left.

Each structure is given as a SMILES string. Active and inactive are the calls of the source. The rule behind the calls is not given here.

Multidrug resistance-associated protein 1, sequence (P33527 whole entry): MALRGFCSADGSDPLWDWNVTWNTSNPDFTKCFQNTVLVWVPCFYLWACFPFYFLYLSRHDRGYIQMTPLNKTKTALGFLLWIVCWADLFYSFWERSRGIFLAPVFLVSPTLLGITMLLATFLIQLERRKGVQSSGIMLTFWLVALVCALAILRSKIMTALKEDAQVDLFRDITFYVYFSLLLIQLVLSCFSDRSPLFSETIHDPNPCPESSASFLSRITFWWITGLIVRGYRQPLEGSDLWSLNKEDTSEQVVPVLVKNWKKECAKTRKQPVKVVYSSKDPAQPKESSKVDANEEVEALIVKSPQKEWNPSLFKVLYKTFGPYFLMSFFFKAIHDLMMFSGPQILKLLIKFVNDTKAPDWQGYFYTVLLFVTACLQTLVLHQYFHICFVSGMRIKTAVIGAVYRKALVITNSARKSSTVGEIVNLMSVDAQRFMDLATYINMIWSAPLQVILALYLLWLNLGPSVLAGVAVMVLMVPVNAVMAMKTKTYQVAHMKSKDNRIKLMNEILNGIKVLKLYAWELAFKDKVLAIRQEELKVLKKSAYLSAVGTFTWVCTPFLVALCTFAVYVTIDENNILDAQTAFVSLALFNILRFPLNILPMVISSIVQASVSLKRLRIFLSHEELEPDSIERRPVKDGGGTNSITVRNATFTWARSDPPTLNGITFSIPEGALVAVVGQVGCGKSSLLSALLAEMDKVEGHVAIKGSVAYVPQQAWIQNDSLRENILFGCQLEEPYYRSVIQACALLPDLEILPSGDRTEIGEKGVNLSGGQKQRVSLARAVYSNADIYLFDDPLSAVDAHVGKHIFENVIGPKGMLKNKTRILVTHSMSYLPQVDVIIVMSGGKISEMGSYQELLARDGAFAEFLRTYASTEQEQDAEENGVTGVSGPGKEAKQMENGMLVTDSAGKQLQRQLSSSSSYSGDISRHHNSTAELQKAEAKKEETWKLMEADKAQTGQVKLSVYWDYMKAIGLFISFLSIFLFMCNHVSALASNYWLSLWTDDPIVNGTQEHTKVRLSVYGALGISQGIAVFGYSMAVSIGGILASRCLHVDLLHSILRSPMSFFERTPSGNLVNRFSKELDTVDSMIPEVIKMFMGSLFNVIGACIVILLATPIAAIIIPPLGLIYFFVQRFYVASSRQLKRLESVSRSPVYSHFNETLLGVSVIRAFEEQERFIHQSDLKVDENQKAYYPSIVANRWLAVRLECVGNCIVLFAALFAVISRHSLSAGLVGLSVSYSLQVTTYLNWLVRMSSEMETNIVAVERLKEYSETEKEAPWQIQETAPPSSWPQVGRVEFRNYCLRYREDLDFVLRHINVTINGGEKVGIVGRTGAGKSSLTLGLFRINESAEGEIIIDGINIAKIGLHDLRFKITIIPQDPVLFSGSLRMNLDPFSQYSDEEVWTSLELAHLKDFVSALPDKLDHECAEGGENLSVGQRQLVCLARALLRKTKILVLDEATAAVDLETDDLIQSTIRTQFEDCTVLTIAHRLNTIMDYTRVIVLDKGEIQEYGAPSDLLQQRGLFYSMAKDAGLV

For `CCC1=C[C@@H]2CN(C1)Cc1c([nH]c3ccccc13)[C@@](C(=O)OC)(c1cc3c(cc1OC)N(C)[C@H]1[C@@](O)(C(=O)OC)[C@H](OC(C)=O)[C@]4(CC)C=CCN5CC[C@]31[C@@H]54)C2` [VINORELBINE], the half-inhibitory concentration (IC50) (usually the concentration that inhibits the measured activity by half) was 298 nM with KBv200 [1], 205 nM with KBv200 [3] and 3720 nM in the data set on NCI/ADR-RES [4]. Moreover, the result in the data set on KBv200 [2] was Active. Also, the inhibition (usually the relative decrease from the control value, in per cent) at 10 µM in the data set with KBv200 [5] was determined as 4.9%.

`COc1ccc(CCN(C)CCCC(C#N)(c2ccc(OC)c(OC)c2)C(C)C)cc1OC` (configuration not stated) [VERAPAMIL]: the inhibition result in the data set on KBv200 [6] and with KBv200 [9] was “inactive” throughout. Besides, the Activity in the data set with KBv200 [7] was 5%. In addition, the inhibition result in the data set with KBv200 [8] was “Active”. For the same compound, the “Ratio IC50” value in the data set with KBv200 [10] was determined as 59.5. Moreover, in the data set on KBv200 [11], the inhibition at 10 µM came out at 97.5%.

Regarding `CC[C@H](C)C1OC(=O)[C@H](C(C)C)NC(=O)CCCCCCC[C@H](O)[C@@H](C)C[C@@H]1C` (some centres not stated), the Activity in data set [12] turned out to be 7.4%; in data set [18], 29%; in the data set on KBv200 [7] it was 9.7%; in data set [25], 90.6%; in data set [26], 91.7%. In addition, the “Ratio IC50” value in the data set with NCI/ADR-RES [13] was 65.3; with KBv200 [14], 49.6; in the data set on KBv200 [15] it was 64; in the data set on NCI/ADR-RES [16] it was 23.9; with NCI/ADR-RES [22], 109.2; in the data set on KBv200 [24] it was 12.4. Moreover, the “Ratio IC50” value in the data set with KBv200 [10] is recorded as 85. The inhibition result in the data set on KBv200 [17] and with KBv200 [6] was “inactive” throughout. Also, the “inhibition (INH)” value in [19] and in data set [21] was “Active” in each case. Further, the inhibition result in the data set on KBv200 [20], in the data set on KBv200 [8] and in the data set on KBv200 [9] was “Active” in each case. In the data set with KBv200 [23], the result was inactive. In addition, the inhibition at 10 µM in the data set on KBv200 [11] amounted to 99.5%.

The values above are taken from ChEMBL document CHEMBL5528088, “Design and Synthesis of Cyclolipopeptide Mimics of Dysoxylactam A and Evaluation of the Reversing Potencies against P-Glycoprotein-Mediated Multidrug Resistance” (J Med Chem, 2024).
